This note sets out measurements from US20200115357A1, “LIVER X RECEPTORS (LXR) MODULATORS” (Phenex-FXR GmbH, priority 2017, published 2020).

Each structure is given as a SMILES string. A value given as a limit tells only on which side of the number the result lay.

The target of assay [1] is T1, GST-LXRβ ligand-binding domain (Homo sapiens, UniProt P55055, DUP175-175).
T1 construct: amino acids 156-461; NP009052; made in house; host or cells: E. coli
T1 sequence (P55055 with tags, fused parts or gaps DUP175-175): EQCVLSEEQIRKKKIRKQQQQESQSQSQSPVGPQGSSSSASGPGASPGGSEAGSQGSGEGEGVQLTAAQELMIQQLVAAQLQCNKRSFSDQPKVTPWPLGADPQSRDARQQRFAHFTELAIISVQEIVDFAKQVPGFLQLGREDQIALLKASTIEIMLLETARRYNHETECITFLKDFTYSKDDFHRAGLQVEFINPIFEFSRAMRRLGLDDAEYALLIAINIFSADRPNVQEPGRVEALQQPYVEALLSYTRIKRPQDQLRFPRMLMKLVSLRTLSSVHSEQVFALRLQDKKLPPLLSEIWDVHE
In words: TR-FRETβ activity assay (LXRβ-LBD / NCoA3 coactivator peptide, prestimulated with 24(S)-25-epoxycholesterol). It is filed as biochemical. The arrangement: key to behavior in FRET assay: ag=agonist; ia=inverse agonist. The following applies: for EC50: 1 μM 24(S)-25-epoxycholesterol as prestimulating agonist, read-out: FRETβ activity range (EC50); for behavior in FRET assay: agonist or inverse agonist. The method, then:
The tested compounds were usually dissolved, tested and stored as 20 mM stock solutions in DMSO. […] Sulfonyl acetic acid derivatives are shelf stable as solid at rt for long time as reported by Griesbrecht et al. (Synlett 2010:374) or Faucher et al. (J. Med. Chem. 2004; 47:18). TR-FRETβ Activity Assay Recombinant GST-LXRβ ligand-binding domain (LBD; amino acids 156-461; NP009052; SEQ ID NO:2) was expressed in E. coli and purified via gluthatione-sepharose affinity chromatography. N-terminally biotinylated NCoA3 coactivator peptide (SEQ ID NO:1) was chemically synthesized (Eurogentec). […] Finally, a detection mix was added containing anti GST-Tb cryptate (CisBio; 610SAXLB) and Streptavidin-XL665 (CisBio; 610SAXLB) as fluorescent donor and acceptor, respectively, as well as the coactivator peptide and LXRβ-LBD protein (SEQ ID NO:2). The reaction was mixed thoroughly, equilibrated for 1 h at 4° C. and vicinity of LXRβ and coactivator peptide was detected by measurement of fluorescence in a VictorX4 multiplate reader (PerkinElmer Life Science) using 340 nm as excitation and 615 and 665 nm as emission wavelengths. Assays were performed in triplicates. Final Assay Concentrations of Components: 240 mM KCl, 1 μg/μL BSA, 0.002% Triton-X-100, […] anti GST-Tb cryptate, 2.5 ng/μL Streptavidin-XL665, coactivator peptide (400 nM), LXRβ protein ([…], i.e. 76 nM)

Assay [2] deals with T2, LXRα full length (FL) (Homo sapiens, UniProt Q13133).
T2 construct: the full length (FL) proteins of LXRα (amino acids 1-447); NP005684; expressed in transfected cells; host or cells: HEK293
T2 sequence (Q13133 1-447): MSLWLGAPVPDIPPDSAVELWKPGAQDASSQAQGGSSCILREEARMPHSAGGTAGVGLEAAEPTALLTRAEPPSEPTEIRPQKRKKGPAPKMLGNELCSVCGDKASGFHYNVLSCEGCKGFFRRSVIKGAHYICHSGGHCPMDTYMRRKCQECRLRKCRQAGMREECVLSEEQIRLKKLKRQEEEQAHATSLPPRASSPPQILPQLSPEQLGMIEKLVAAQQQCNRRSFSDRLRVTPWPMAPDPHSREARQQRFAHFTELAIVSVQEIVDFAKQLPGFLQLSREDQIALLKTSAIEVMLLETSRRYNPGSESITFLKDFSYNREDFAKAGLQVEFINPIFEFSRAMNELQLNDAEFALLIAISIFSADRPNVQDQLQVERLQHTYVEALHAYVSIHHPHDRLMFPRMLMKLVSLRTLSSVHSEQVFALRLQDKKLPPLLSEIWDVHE
In words: LXR Gal4 reporter transient transfection assay (M2H), Gal4α FL. The following applies: HEK293 cells; read-out: M2H Gal4α FL activity range (EC50). In kind it is cell-based. The method, then: (§1) The tested compounds were usually dissolved, tested and stored as 20 mM stock solutions in DMSO. Since sulfonyl acetic acid derivatives tend to decarboxylate under these conditions, these stock solutions were prepared, tested and stored as 20 mM DMSO stock solutions containing 100 mM trifluoroacetic acid (5 equivalents). Sulfonyl acetic acid derivatives are shelf stable as solid at rt for long time as reported by Griesbrecht et al. (Synlett 2010:374) or Faucher et al. (J. Med. Chem. 2004; 47:18).
(§2) LXR Gal4 Reporter Transient Transfection Assays
(§3) LXRα and LXRβ activity status was determined via detection of interaction with coactivator and corepressor proteins in mammalian two-hybrid experiments (M2H). For this, via transient transfection the full length (FL) proteins of LXRα (amino acids 1-447; NP005684; SEQ ID NO:7) or LXRβ-(amino acids 1-461; NP009052; SEQ ID NO:8) or the ligand-binding domains (LBD) of LXRα (amino acids 155-447 SEQ ID NO:3) or LXRβ (amino acids 156-461; SEQ ID NO:4) were expressed from pCMV-AD (Stratagene) as fusions to the transcriptional activation domain of NFkB. As cofactors, domains of either the steroid receptor coactivator 1 (SRC1; amino acids 552-887; SEQ ID NO:5) or of the corepressor NCoR (amino acids 1903-2312 SEQ ID NO:6) were expressed as fusions to the DNA binding domain of the yeast transcription factor GAL4 (from pCMV-BD; Stratagene). Interaction was monitored via activation of a coexpressed Firefly Luciferase Reporter gene under control of a promoter containing repetitive GAL4 response elements (vector pFRLuc; Stratagene). Transfection efficiency was controlled via cotransfection of constitutively active pRL-CMV Renilla reniformis luciferase reporter (Promega). HEK293 cells were grown in minimum essential medium (MEM) with 2 mM L-glutamine and Earle's balanced salt solution supplemented with 8.3% fetal bovine serum, 0.1 mM non-essential amino acids, 1 mM sodium pyruvate, at 37° C. in 5% CO2. 3.5×10^4 cells/well were plated in 96-well cell culture plates in growth medium supplemented with 8.3% fetal bovine serum for 16-20 h to ˜90% confluency. For transfection, medium was taken off and LXR and cofactor expressing plasmids as well as the reporter plasmids are added in 30 μL OPTIMEM/well including polyethylene-imine (PEI) as vehicle. Typical amounts of plasmids transfected/well: pCMV-AD-LXR (5 ng), pCMV-BD-cofactor (5 ng), pFR-Luc (100 ng), pRL-CMV (0.5 ng). Compound stocks were prepared in DMSO, prediluted in MEM to a total volume of 120 μL, and added 4 h after addition of the transfection mixture (final vehicle concentration not exceeding 0.2%). Cells were incubated for additional 16 h, lysed for 10 min in 1× Passive Lysis Buffer (Promega) and Firefly and Renilla luciferase activities were measured sequentially in the same cell extract using buffers containing D-luciferine and coelenterazine, respectively. Measurements of luminescence were done in a BMG-Iuminometer.

Assay [3] deals with T3, LXRβ full length (FL) (Homo sapiens, UniProt P55055, DUP175-175).
T3 construct: the full length (FL) proteins of LXRα (amino acids 1-447); NP005684; NP009052; expressed in transfected cells; host or cells: HEK293
T3 sequence (P55055 with tags, fused parts or gaps DUP175-175): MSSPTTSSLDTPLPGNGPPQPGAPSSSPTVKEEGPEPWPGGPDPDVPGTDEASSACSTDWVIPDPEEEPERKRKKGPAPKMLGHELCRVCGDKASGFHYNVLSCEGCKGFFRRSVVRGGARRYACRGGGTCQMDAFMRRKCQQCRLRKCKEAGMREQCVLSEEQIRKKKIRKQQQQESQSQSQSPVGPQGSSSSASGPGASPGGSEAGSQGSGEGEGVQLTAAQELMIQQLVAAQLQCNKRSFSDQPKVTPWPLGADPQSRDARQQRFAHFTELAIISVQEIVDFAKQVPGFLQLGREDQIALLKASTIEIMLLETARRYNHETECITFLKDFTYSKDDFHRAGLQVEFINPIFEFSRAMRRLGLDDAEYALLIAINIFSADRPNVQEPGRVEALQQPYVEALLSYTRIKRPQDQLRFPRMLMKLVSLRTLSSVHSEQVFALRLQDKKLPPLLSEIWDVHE
In words: LXR Gal4 reporter transient transfection assay (M2H), Gal4β FL. The following applies: HEK293 cells; read-out: M2H Gal4β FL activity range (EC50). It is filed as cell-based. The method, then: as §1, §2, §3

As to `Cc1cc(C)c(S(=O)(=O)N(Cc2ccc(-c3cccc(S(=O)(=O)CC(=O)O)c3)cc2)Cc2ccc(C)o2)c(C)c1` [5/5], the EC50 (in general, the concentration giving half of the maximal effect) is above 10 µM in assay [1], 1 to 10 µM in assay [2] and 0.1 to 1 µM in assay [3]. For the same compound, in assay [1], the “behavior in FRET assay” value is recorded as “ia”.
The corresponding values for `Cc1cc(F)cc(C)c1S(=O)(=O)N(Cc1ccc(-c2cccc(S(=O)(=O)CC(=O)O)c2)cc1)Cc1ccc(C(F)(F)F)o1` [10/2] are 1 to 10 µM, 1 to 10 µM, 0.1 to 1 µM and “ia”.
The corresponding values for `O=C(O)CS(=O)(=O)c1cccc(-c2ccc(CN(Cc3ccc(C(F)(F)F)o3)S(=O)(=O)c3c(Cl)cccc3C(F)(F)F)cc2)c1` [10/3] are 1 to 10 µM, 1 to 10 µM, 0.1 to 1 µM and “ag”.
The corresponding values for `Cc1cc(C)c(S(=O)(=O)N(Cc2ccc(C(F)(F)F)o2)Cc2sc(-c3cccc(C(C)(C)C(=O)O)c3)cc2Cl)c(C)c1` [10/6] are 1 to 10 µM, 0.1 to 1 µM, below 0.1 µM and “ag”.
On to `Cc1cc(C)c(S(=O)(=O)N(Cc2ccc(-c3cccc(C(C)(C)C(=O)O)c3)cc2)c2ccc(C(F)(F)F)o2)c(C)c1` [10/7], for which the 50% effective concentration (EC50) is 0.1 to 1 µM in assay [1], 0.1 to 1 µM in assay [2] and below 0.1 µM in assay [3]. Also, in assay [1], the “behavior in FRET assay” value is “ag”.
With `COc1cc(C)cc(C)c1S(=O)(=O)N(Cc1ccc(-c2cccc(S(=O)(=O)CC(=O)O)c2)cc1)Cc1ccc(C(F)(F)F)o1` [10/8], the EC50 in assay [1], in assay [2] and in assay [3] was 1 to 10 µM throughout. In addition, the “behavior in FRET assay” value in assay [1] was “ag”.
With `O=C(O)CS(=O)(=O)c1cccc(-c2ccc(CN(Cc3ccc(C(F)(F)F)o3)S(=O)(=O)c3cccc4ccccc34)cc2)c1` [10/9], the half-maximal effective concentration (EC50) in assay [1] fell in the range of 1 to 10 µM; in assay [2], 1 to 10 µM; in assay [3], 0.1 to 1 µM. Moreover, the “behavior in FRET assay” value in assay [1] is reported as “ia”.
On to `COc1ccc(S(=O)(=O)N(Cc2ccc(-c3cccc(S(=O)(=O)CC(=O)O)c3)cc2)Cc2ccc(C(F)(F)F)o2)c2c1CCCC2` [10/10], for which the EC50 in assay [1] was 1 to 10 µM; in assay [2] it was 0.1 to 1 µM; in assay [3], 0.1 to 1 µM. For the same compound, in assay [1], the “behavior in FRET assay” value was “ia”.
In the case of `Cc1ccc2cccnc2c1S(=O)(=O)N(Cc1ccc(-c2cccc(S(=O)(=O)CC(=O)O)c2)cc1)Cc1ccc(C(F)(F)F)o1` [10/11], the EC50 lay within 1 to 10 µM in assay [1], 1 to 10 µM in assay [2] and 0.1 to 1 µM in assay [3]. The “behavior in FRET assay” value in assay [1] is recorded as “ag”.
In the case of `Cc1ccc(S(=O)(=O)N(Cc2ccc(-c3cccc(S(=O)(=O)CC(=O)O)c3)cc2)Cc2ccc(C(F)(F)F)o2)c(C)c1` [10/12], the EC50 in assay [1] was in the range of 1 to 10 µM; in assay [2], 1 to 10 µM; in assay [3], 0.1 to 1 µM. Moreover, in assay [1], the “behavior in FRET assay” value was “ia”.
With `Cc1cc(C)c(S(=O)(=O)N(Cc2ccc(-c3cccc(S(=O)(=O)CC(=O)O)c3)cc2)Cc2ccc(C(F)F)o2)c(C)c1` [10/13], the EC50 in assay [1] lay within 1 to 10 µM; in assay [2], 1 to 10 µM; in assay [3], 0.1 to 1 µM. Besides, the “behavior in FRET assay” value in assay [1] was “ia”.
On to `Cc1ccc2ccccc2c1S(=O)(=O)N(Cc1ccc(C(F)(F)F)o1)C1COc2cc(-c3cccc(C(C)(C)C(=O)O)c3)ccc21` (stereo not drawn) [10/14], for which the results for the EC50 in assay [1], in assay [2] and in assay [3] were 0.1 to 1 µM, below 0.1 µM and below 0.1 µM, respectively. Moreover, in assay [1], the “behavior in FRET assay” value is “ia”.
Turning to `Cc1ccc2ncccc2c1S(=O)(=O)N(Cc1ccc(-c2cccc(C(C)(C)C(=O)O)c2)cc1)Cc1ccc(C(F)(F)F)o1` [10/15], the EC50 in assay [1], in assay [2] and in assay [3] was below 0.1 µM throughout. Further, in assay [1], the “behavior in FRET assay” value was “ia”.
`Cc1ccc2ccccc2c1S(=O)(=O)N(Cc1ccc(-c2cccc(S(=O)(=O)CC(=O)O)c2)cc1)Cc1cc(C(F)(F)F)co1` [10/16]: the EC50 in assay [1] is above 10 µM; in assay [2], 1 to 10 µM; in assay [3] it was 0.1 to 1 µM. Also, the “behavior in FRET assay” value in assay [1] is reported as “ia”.
The corresponding values for `Cc1ccc2ccccc2c1S(=O)(=O)N(Cc1ccc(-c2cccc(C(C)(C)C(=O)O)c2)cc1)Cc1cc2ccccc2o1` [10/17] are 1 to 10 µM, 0.1 to 1 µM, below 0.1 µM and “ia”.
